The source of these data is patent US20250199004A1, “METHODS OF EVALUATING TREATMENT OUTCOME IN HIGH GRADE SEROUS OVARIAN CANCER” (THE REGENTS OF THE UNIVERSITY OF COLORADO, A BODY CORPORATE, priority 2018, published 2025).

Assay [1] deals with TMEFF1 expression in OVCAR4 cells. Briefly: TMEFF1 (CBX2 target gene) expression by qPCR. Type of assay: cell-based, human. Particulars: qPCR after treatment of OVCAR4 cells. On the procedure:
Ten candidate inhibitors were evaluated based on their ability to inhibit HGSOC cell viability. Dose response assays of all 10 inhibitors were conducted in OVCAR4, PEO1, and COV504 HGSOC cell lines to determine half inhibitory concentration (IC50) (FIG. 12 Panel A). We explored ability of these compounds to downregulate a CBX2 target gene, transmembrane protein with EGF-like and two follistatine-like domains 1 (TMEFF1) (FIG. 12 Panel B).
RNA was isolated using RNAeasy Plus Mini Kit (Qiagen, Hilden Germany) according to the manufacturer's protocol. NanoDrop spectrophotometry was used to measure concentration of extracted RNA. Luna Universal One-step RT qPCR kit (New England BioLabs, Ipswich, MA) was used on BioRad CFX96 (Bio-Rad, Hercules, CA). HPRT or GAPDH were used as internal control as stated in figure legend.

The test system of assay [2] is Histone H2A Lys119 ubiquitination (H2AK119ub). The experiment in a line: Western blot for H2AK119ub as marker of CBX2/PRC1 activity. In kind it is cell-based, human. The protocol:
CBX2 is a known subunit of PRC1, which is critical for normal development and functions as a transcriptional repressor. PRC1 is understood to have histone ubiquitin ligase activity, specifically targeting Histone H2A […] ubiquitination ([…]). In order to evaluate the impact of treatment with alisertib on the broader PRC1 complex, […] was used as a surrogate marker of CBX2 activity in the PRC1. OVCAR4 (***confirm) cells were treated with IC50 doses of each of the 10 candidate inhibitors, a Western blot for […] was compared to a beta-actin control (FIG. 12 Panel C). […] Finally, PRC1 target […] was used to evaluate the impact of treatment with alisertib on the broader PRC1 complex. OVCAR4 and PEO1 cells were treated with increasing doses of aliserib and western blots were performed to evaluate […] as a marker of PRC1 activity (FIG. 14 Panel F). Cell lysis was performed using radioimmunoprecipitation assay (RIPA) buffer (150 mM sodium chloride, Triton X-100, 0.5% sodium deoxycholate, 0.1% SDS [sodium dodecyl sulfate], 50 mM Tris, pH 8.0) supplemented with complete EDTA-free protease inhibitor cocktail (Roche), as well as NaF and NaV. Protein was quantified using bicinchoninic acid (BCA) protein assay (Thermo Fisher Scientific, Waltham, MA) and spectrophotometry. An 8% SDS polyacrylamide gel resolving gel was created with a 4% stacking gel. […]
(In general: In western blotting, separated proteins are transferred to a membrane and probed.)

In assay [3] the test system is OVCAR4 cells. Briefly: Proliferation assay, parental vs CRISPR CBX2 knock out cells. Particulars: OVCAR4 CRISPR/Cas9 CBX2 KO vs parental. Type of assay: cell-based, human. The protocol:
Examples 8-12: All drugs were suspended in DMSO at the concentration of 50 mM and aliquoted and stored in -80 C. 1000 cells were seeded in 96 well plate a day prior. 10 fold dilution of drugs in the cultureing media supplemented with FBS and penicillin/Streptomycin was added and cells were cultured until the cells in the no-drug added wells became confluent (5-8 days). Cells were washed with PBS twice and fixed with fixation buffer (10% Methanol and 10% Acetic acid in PBS) followed by staining with Cristal Violet staining solution (0.4% Cristal Violet in 20% Ethanol). […] CBX2 CRISPR knocked-out OVCAR4 cells were created by the University of Colorado Functional Genomics Facility using the IDT Alt-R RNP system. ALT-R crRNA and ATL-R tracrRNA were suspended at 100 μmol/L in nuclease-free IDTE pH7.5. The same volumes of ALT-R crRNA and ATL-R tracrRNA were mixed to prepare gRNA complex at 50μmol/L, heated at 95° C. for 5 minutes, and then were cooled to room temperature. The RNP complex was prepared with 150 pmol of gRNA and 125 pmol of Alt-R Cas9-NLS in final volume of 5 μL in PBS. Cells were harvested in Necleofector solution SF with supplement (Lonza, Basel, Switzerland) at a concentration of 1×10^6 cells per 100 μL. The transfection mix was made with 100 μL of cell suspension, 2.5 μL each of RNP complex, and 0.6 μL of 100 μL of Alt-R Cas9 Electroporation enhancer. […]

The test system of assay [4] is OVCAR4 cells. Briefly: Ultra low dilution analysis (ULDA) of stemness. Type of assay: cell-based, human. The protocol: An ultralow dilutional assay (ULDA) utilizing the OVCAR4 HGSOC cell line was used to evaluate the functional impact of four inhibitors. The number of spheroids were plotted against the IC50 dose of each agent (FIG. 13 Panel B). The more significant the decrease in spheroids formation capacity, the more significant the decrease in stemness associated with treatment. […] Cells were trypsinized and filtered with a 40-micron filter, creating a single cell suspension. Cells were plated in 96 wells ultra-low attachment plates (CORNING #3474 this is flat bottom, and CORNING #7007: used u bottom for COV504) in 200 ul CSC media (DMEM/F12, 1× B27, 4% FBS, 100 U/ml penicillin/streptomycin, 20 ng/ml human EGF, 20 ng/ml human FGF). After 3 days, 100 μl of medium was gently taken out, then added drugs to final IC50 concentration. The media with drug was replaced with half volume every 4-5 days and cultured for 3 weeks. […] After 4 hours spheroid existence and color were evaluated under the microscope (Incucyte). Observation of purple spheroids confirmed the presence of live cells and were scored as 1. If no spheroids appreciated, or if purple spheroids were not observed it was scored as 0. […] The stem cell frequency was calculated using ultra low limiting dilution analysis (PMID: 19567251).

The subject of assay [5] is ID8 Trp53-/- Brca2-/- cells. Briefly: Syngeneic mouse model, CBX2 intact vs CBX2 knock down tumors. Type of assay: in vivo, C57BL/6J mice. As to conditions: 30 mg/kg PO, 28 days. The protocol:
To further elucidate the dependence of alisertib on CBX2, an in vivo study was performed using a syngeneic mouse model with CBX2 intact compared to CBX2 knock down, undergoing treatment with alisertib. Measurements of mRNA expression confirmed that CBX2 knock down was effective (FIG. 15 Panel A). The mice were treated with vehicle control or 30 mg/kg alisertib for 28 days (FIG. 15 Panel B). Tumor-bearing mice were necropsied at the end of treatment and omental weight, number of dissemination sites, and total tumor weight were quantified (FIG. 15 Panels C-E, respectively). […] It can be concluded therefore, that the loss of CBX2 expression in an ovarian cancer model attenuates the anti-tumor response to alisertib. […] Tissue was also collected and processed for further analysis. […] In the second study, mice were treated with 30 mg/kg alisertib, PO, for 28 days, as described above. Due to the weight loss observed in the first study, we reduced treatment from 7 days per week to 5 days per week.

As for `COc1cc(Nc2ncc3c(n2)-c2ccc(Cl)cc2C(c2c(F)cccc2OC)=NC3)ccc1C(=O)O` [alisertib], the TMEFF1 expression entry in assay [1] was “significantly inhibited”. Further, the “H2AK119ub, surrogate marker of PRC1 activity” value in assay [2] (OVCAR4 and PEO1 cells, increasing doses) is recorded as “decreased in parallel with CBX2”. Further, the “Histone H2A Lys119 ubiquitination” value in assay [2] (OVCAR4 cells, IC50 dose, vs beta-actin control) was “decreased”. In addition, in assay [3], the “IC50 in CBX2 KO cells compared to the parental cells” value is “ten times higher”. The “impact on stemness through ULDA on knocking out CBX2” value in assay [4] (OVCAR4 CBX2 KO vs parental) is “attenuated impact”. Moreover, the stem cell frequency result in assay [4] (treatment at IC50) was “decreased”. Moreover, in assay [5], the “number of dissemination sites: anti-tumor response in CBX2 knock down mice vs CBX2 intact mice” value is given as “significant attenuation”, the “omental weight: anti-tumor response in CBX2 knock down mice vs CBX2 intact mice” value is “significant attenuation” and the “total tumor weight: anti-tumor response in CBX2 knock down mice vs CBX2 intact mice” value was “significant attenuation”.
